Laboratory results taken from ChEMBL document CHEMBL1144131, “The taxane diterpenoids” (J Nat Prod, 1999).
Values after ≈ are worked out from the molar mass of the structure shown.

Test system: P388
Assay: Cytotoxicity against mouse P388 cells
Format: functional, cell-based

Compound: CC(=O)O[C@@H]1C2=C(C)C(=O)C[C@@](O)([C@@H](OC(=O)c3ccccc3)[C@@H]3[C@]4(OC(C)=O)CO[C@@H]4C[C@H](O)[C@@]3(C)[C@H]1O)C2(C)C
- IC50: 21 µg/mL (≈ 35.8 µM)

Compound: C=C1[C@@H](OC(=O)/C=C/c2ccccc2)C[C@H](OC(C)=O)[C@@]2(C)[C@@H](OC(C)=O)[C@H](OC(C)=O)C3=C(C)[C@@H](OC(C)=O)C[C@@H]([C@@H](O)[C@H]12)C3(C)C
- IC50: 3.9 µg/mL (≈ 5.85 µM)

Compound: CC(=O)O[C@H]1C[C@H]2OC[C@@]2(OC(C)=O)[C@H]2[C@H](OC(=O)c3ccccc3)[C@]3(C(C)(C)O)C[C@H](O)C(C)=C3[C@@H](O)[C@H](O)[C@]12C
- IC50: 44 µg/mL (≈ 74.7 µM)
